Experimental data as given in ChEMBL document CHEMBL4414679, “Discovery of 4,6-pyrimidinediamine derivatives as novel dual EGFR/FGFR inhibitors aimed EGFR/FGFR1-positive NSCLC” (Eur J Med Chem, 2020).

What was measured:
[1] = system: NCI-H226; experiment: Antiproliferative activity against human NCI-H226 cells assessed as inhibition of cell growth at 10 uM incubated for 48 hrs by MTT assay relative to control; type: functional; conditions: NCI-H226, 48 h
[2] = molecular target: Fibroblast growth factor receptor 1 (Homo sapiens, UniProt P11362); experiment: Inhibition of N-terminal GST-tagged human FGFR1 cytoplasmic domain (398-822 AA) expressed in baculovirus at 10 uM using FAM-labelled peptide as substrate pre-incubated for 10 mins followed by substrate addition by mobility shift assay relative to control
[3] = system: PC-9; experiment: Antiproliferative activity against human PC9 cells assessed as inhibition of cell growth at 10 uM incubated for 48 hrs by MTT assay relative to control; type: functional; conditions: PC-9, 48 h
[4] = system: NCI-H1581; experiment: Antiproliferative activity against human NCI-H1581 cells assessed as inhibition of cell growth at 10 uM incubated for 48 hrs by MTT assay relative to control; type: functional; conditions: NCI-H1581, 48 h
[5] = system: NCI-H520; experiment: Antiproliferative activity against human NCI-H520 cells assessed as inhibition of cell growth at 10 uM incubated for 48 hrs by MTT assay relative to control; type: functional; conditions: NCI-H520, 48 h
[6] = system: HCC827; experiment: Antiproliferative activity against human HCC827 cells assessed as inhibition of cell growth at 10 uM incubated for 48 hrs by MTT assay relative to control; type: functional; conditions: HCC827, 48 h
[7] = system: Epidermal growth factor receptor (Homo sapiens), P00533 [L858R]; experiment: Inhibition of recombinant human EGFR L858R mutant expressed in baculovirus at 10 uM using FAM-labelled peptide as substrate pre-incubated for 10 mins followed by substrate addition by mobility shift assay relative to control
[8] = molecular target: T1, Epidermal growth factor receptor (Homo sapiens, UniProt P00533); experiment: Inhibition of N-terminal GST-tagged human EGFR cytoplasmic domain (669-1210 AA) expressed in baculovirus at 10 uM using FAM-labelled peptide as substrate pre-incubated for 10 mins followed by substrate addition by mobility shift assay relative to control
[9] = molecular target: T1, Epidermal growth factor receptor; experiment: Inhibition of N-terminal GST-tagged human EGFR (d746-750AA) expressed in baculovirus at 10 uM using FAM-labelled peptide as substrate pre-incubated for 10 mins followed by substrate addition by mobility shift assay relative to control

Epidermal growth factor receptor (Homo sapiens), P00533 [L858R], sequence (P00533 whole entry L858R, the tested form may be a part): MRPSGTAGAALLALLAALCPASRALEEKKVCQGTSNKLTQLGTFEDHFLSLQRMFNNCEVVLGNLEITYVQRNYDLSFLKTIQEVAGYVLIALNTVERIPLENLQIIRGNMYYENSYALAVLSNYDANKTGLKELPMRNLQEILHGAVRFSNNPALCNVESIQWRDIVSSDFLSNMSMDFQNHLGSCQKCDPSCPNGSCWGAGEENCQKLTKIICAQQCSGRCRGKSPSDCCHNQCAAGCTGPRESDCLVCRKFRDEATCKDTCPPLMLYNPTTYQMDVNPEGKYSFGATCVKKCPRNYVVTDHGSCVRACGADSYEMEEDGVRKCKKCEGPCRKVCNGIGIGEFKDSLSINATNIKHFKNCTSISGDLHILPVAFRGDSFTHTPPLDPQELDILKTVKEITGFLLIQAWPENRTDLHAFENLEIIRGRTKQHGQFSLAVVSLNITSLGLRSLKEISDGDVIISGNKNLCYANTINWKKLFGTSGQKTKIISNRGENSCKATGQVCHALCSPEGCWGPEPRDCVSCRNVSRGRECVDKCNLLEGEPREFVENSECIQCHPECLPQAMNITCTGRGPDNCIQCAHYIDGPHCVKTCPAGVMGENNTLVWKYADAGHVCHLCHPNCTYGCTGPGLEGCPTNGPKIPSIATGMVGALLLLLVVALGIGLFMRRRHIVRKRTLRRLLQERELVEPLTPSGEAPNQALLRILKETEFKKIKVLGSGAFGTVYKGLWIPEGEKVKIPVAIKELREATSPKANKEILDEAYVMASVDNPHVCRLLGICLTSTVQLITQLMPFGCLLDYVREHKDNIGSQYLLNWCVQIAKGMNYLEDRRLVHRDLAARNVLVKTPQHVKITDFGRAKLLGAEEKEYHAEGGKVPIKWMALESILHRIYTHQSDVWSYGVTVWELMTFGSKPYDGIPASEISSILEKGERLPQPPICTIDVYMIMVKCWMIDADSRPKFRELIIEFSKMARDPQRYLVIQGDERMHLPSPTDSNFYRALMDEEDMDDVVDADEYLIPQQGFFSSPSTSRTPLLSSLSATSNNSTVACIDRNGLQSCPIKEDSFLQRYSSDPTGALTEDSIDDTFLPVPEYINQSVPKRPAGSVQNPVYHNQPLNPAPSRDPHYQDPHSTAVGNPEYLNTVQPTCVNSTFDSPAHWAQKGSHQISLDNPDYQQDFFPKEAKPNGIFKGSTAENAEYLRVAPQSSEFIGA
T1 sequence (P00533 whole entry, the tested form may be a part): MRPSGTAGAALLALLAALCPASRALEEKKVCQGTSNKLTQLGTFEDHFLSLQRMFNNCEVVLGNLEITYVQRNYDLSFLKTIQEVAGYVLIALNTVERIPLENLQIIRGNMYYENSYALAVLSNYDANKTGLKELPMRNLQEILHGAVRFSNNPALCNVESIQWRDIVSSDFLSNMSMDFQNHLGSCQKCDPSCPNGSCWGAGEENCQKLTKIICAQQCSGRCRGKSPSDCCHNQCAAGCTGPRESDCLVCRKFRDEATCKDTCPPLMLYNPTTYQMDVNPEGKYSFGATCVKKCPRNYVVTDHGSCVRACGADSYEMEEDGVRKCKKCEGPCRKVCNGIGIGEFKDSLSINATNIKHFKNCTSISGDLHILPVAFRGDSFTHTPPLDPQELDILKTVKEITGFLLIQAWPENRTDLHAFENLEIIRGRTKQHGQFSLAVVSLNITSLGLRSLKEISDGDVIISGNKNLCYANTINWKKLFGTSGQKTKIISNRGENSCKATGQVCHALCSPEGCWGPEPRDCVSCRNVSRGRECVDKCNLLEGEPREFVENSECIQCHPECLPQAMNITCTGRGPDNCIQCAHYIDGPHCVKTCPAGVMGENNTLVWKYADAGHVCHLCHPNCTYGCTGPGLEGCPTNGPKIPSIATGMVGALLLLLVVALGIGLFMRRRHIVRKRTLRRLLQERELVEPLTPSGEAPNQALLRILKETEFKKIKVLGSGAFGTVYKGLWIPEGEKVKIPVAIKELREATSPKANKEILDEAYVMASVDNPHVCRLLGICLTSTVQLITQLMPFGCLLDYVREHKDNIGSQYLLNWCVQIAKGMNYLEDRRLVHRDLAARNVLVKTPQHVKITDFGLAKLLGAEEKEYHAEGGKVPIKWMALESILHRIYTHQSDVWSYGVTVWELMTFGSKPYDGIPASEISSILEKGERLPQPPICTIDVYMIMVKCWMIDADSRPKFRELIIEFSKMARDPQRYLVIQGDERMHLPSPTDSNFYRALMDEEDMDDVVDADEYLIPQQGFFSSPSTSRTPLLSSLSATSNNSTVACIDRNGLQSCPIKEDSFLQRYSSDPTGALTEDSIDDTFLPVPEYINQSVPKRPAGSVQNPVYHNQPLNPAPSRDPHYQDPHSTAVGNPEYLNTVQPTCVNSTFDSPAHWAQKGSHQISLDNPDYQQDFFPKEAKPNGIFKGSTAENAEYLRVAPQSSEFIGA
Fibroblast growth factor receptor 1, sequence (P11362 22-822 limits assumed): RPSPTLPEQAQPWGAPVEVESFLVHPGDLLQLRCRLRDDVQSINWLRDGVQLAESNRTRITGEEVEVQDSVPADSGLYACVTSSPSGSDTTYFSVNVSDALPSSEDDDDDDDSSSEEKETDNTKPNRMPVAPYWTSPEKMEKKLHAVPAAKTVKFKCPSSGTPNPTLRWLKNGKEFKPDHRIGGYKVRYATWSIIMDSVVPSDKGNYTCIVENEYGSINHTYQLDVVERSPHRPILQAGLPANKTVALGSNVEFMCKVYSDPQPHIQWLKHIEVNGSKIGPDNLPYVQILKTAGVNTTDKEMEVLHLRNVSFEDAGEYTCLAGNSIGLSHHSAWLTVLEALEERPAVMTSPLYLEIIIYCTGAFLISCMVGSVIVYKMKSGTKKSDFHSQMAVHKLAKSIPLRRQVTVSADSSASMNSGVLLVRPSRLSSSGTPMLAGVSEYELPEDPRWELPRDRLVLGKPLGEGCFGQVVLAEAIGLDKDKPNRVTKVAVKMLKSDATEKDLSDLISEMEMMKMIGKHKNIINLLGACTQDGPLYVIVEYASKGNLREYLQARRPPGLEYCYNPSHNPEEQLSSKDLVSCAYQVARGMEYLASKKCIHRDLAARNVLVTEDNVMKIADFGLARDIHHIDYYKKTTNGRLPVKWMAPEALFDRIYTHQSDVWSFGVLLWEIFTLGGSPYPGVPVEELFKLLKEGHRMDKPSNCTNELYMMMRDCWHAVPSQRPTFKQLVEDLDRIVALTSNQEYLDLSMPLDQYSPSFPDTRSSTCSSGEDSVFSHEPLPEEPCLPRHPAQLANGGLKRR

| Compound | inhibition at 10 µM [1] [%] | inhibition [2] [%] | inhibition at 10 µM [3] [%] | inhibition at 10 µM [4] [%] | inhibition at 10 µM [5] [%] | inhibition at 10 µM [6] [%] | inhibition [7] [%] | inhibition [8] [%] | inhibition [9] [%] |
| --- | --- | --- | --- | --- | --- | --- | --- | --- | --- |
| COc1cc(NC(=O)Nc2cc(Nc3cc(C)cc(F)c3)ncn2)cc(OC)c1 | 35.3 | 1.1 | 64.5 | 28.3 | 24.5 | 62 | 23.1 | 8 | 16.7 |
| COc1cc(NC(=O)Nc2cc(Nc3cccc(C(C)(C)C)c3)ncn2)cc(OC)c1 | 40 | 5.2 | 68 | 35 | 13.1 | 48.7 | 29.3 | 17.1 | 10.4 |
| COc1cc(NC(=O)Nc2cc(Nc3cc(OC)cc(C(F)(F)F)c3)ncn2)cc(OC)c1 | 56 | -1.7 | 88.1 | 50.7 | 36.5 | 57.7 | 48.6 | 18.5 | 27.5 |
| COc1ccc(Nc2cc(NC(=O)Nc3c(Cl)cccc3Cl)ncn2)cc1C | 50 | 50.4 | 80.1 | 45 | 29.1 | 63.1 | 76.4 | 47.3 | 67.4 |
| COc1cc(NC(=O)Nc2cc(Nc3ccc(C)c(F)c3)ncn2)cc(OC)c1 | 39.7 | 0.1 | 77.5 | 38 | 30.6 | 72 | 64.2 | 31.7 | 51.5 |
| COc1cc(Nc2cc(NC(=O)Nc3c(Cl)cccc3Cl)ncn2)cc(C(F)(F)F)c1 | 33.1 | 0.9 | 88.5 | 32.3 | 23.1 | 57.7 | 69.3 | 40 | 48.4 |
| CC(C)(C)c1ccc(Nc2cc(NC(=O)Nc3c(Cl)cccc3Cl)ncn2)cc1 | 40 | 30.4 | 41.5 | 71.3 | 22 | 42.3 | 71.8 | 48.2 | 63.2 |
| COc1cc(NC(=O)Nc2cc(Nc3cc(Br)ccc3OC)ncn2)cc(OC)c1 | 42.7 | -1.5 | 82.5 | 23.1 | 43.5 | 76.3 | 52.4 | 51.4 | 45.2 |
| CC(C)(C)c1cccc(Nc2cc(NC(=O)Nc3c(Cl)cccc3Cl)ncn2)c1 | 36.5 | 10.7 | 87 | 64.3 | 29.6 | 37.3 | 68.4 | 44.7 | 57.4 |
| COc1cc(NC(=O)Nc2cc(Nc3ccc(C(C)(C)C)cc3)ncn2)cc(OC)c1 | 47.7 | -0.7 | 74.1 | 38.7 | 17.5 | 32.7 | 2.7 | -1.1 | -0.2 |
| COc1cc(Br)ccc1Nc1cc(NC(=O)Nc2c(Cl)cccc2Cl)ncn1 | 43 | 12.6 | 90.5 | 47.3 | 29.1 | 42.7 | 83.2 | 65.6 | 75.9 |
| COc1ccc(F)cc1Nc1cc(NC(=O)Nc2c(Cl)cccc2Cl)ncn1 | 31.3 | 11.1 | 85.5 | 73.1 | 38 | 78 | 63.3 | 39.2 | 48.7 |
| COc1ccc(C(F)(F)F)cc1Nc1cc(NC(=O)Nc2c(Cl)cccc2Cl)ncn1 | 60.1 | 55.4 | 89 | 69 | 33 | 68.7 | 83.1 | 77.5 | 73 |
| Cc1ccc(Nc2cc(NC(=O)Nc3c(Cl)cccc3Cl)ncn2)cc1C | 41.3 | 45.3 | 92.1 | 73.3 | 47.5 | 84.3 | 63.8 | 64.8 | 58.6 |
| Cc1ccc(Nc2cc(NC(=O)Nc3c(Cl)cccc3Cl)ncn2)cc1F | 40.7 | 51 | 92 | 45.3 | 33.5 | 85.3 | 67.2 | 77.8 | 87.1 |
| CCc1ccc(Nc2cc(NC(=O)Nc3c(Cl)cccc3Cl)ncn2)cc1 | 39.5 | 47.3 | 70 | 38.1 | 31.5 | 58 | 89.4 | 79 | 89.2 |
| CCc1cccc(Nc2cc(NC(=O)Nc3cc(OC)cc(OC)c3)ncn2)c1 | 36.7 | 1.1 | 82.1 | 27.7 | 23 | 52.6 | 41 | 10.1 | 26 |
| O=C(Nc1cc(Nc2ccc(F)c(Cl)c2)ncn1)Nc1c(Cl)cccc1Cl | 47.3 | 27.6 | 91.1 | 67 | 39.5 | 53.7 | 97 | 94.3 | 96.7 |
| COc1cc(NC(=O)Nc2cc(Nc3ccc(C)c(C)c3)ncn2)cc(OC)c1 | 45.3 | 21.3 | 66 | 20.1 | 29.5 | 45.7 | 39.5 | 54.1 | 43.4 |
| CCc1ccc(Nc2cc(NC(=O)Nc3cc(OC)cc(OC)c3)ncn2)cc1 | 50.1 | 6.1 | 78 | 32.7 | 23.5 | 66.2 | 45.7 | 25.4 | 28.1 |
| O=C(Nc1cccc(Nc2cc(Nc3cccc(C(F)(F)F)c3)ncn2)c1)C1CC1 | 52.7 | – | 90.5 | 26 | 30 | 94.7 | – | – | – |
| COc1cc(NC(=O)Nc2cc(Nc3cc(F)ccc3OC)ncn2)cc(OC)c1 | 37.7 | -1.6 | 59.5 | 42.1 | 38 | 59 | 54.6 | 31.1 | 35.4 |
